Source: PubChem BioAssay (NCI)
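Where inhibition never reached the appropriate level, the endpoint shown equals the highest concentration tested. Otherwise, values were interpolated linearly from a five-concentration, 48-hour dose response in 96-well plates. TGI: total growth inhibition.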

Columns and labels:
Assay in all cases: NCI tumour cell line growth inhibition, 48 h
A498 renal = tested on: A498 renal
U251 CNS = tested on: U251 CNS
SN12C renal = tested on: SN12C renal
MOLT-4 leukemia = tested on: MOLT-4 leukemia
EKVX NSCLC = tested on: EKVX NSCLC
HOP-92 NSCLC = tested on: HOP-92 NSCLC
NCI-H226 lung = tested on: NCI-H226 lung
NCI-H23 lung = tested on: NCI-H23 lung
MALME-3M melanoma = tested on: MALME-3M melanoma
OVCAR-5 ovarian = tested on: OVCAR-5 ovarian
NCI-H460 lung = tested on: NCI-H460 lung
SN12K1 renal = tested on: SN12K1 renal
P388 leukemia = tested on: P388 leukemia
RXF 393 renal = tested on: RXF 393 renal
SK-MEL-2 melanoma = tested on: SK-MEL-2 melanoma
DMS 273 small cell lung = tested on: DMS 273 small cell lung
CAKI-1 renal = tested on: CAKI-1 renal
P388/ADR leukemia = tested on: P388/ADR leukemia
MCF7 breast = tested on: MCF7 breast
OVCAR-3 ovarian = tested on: OVCAR-3 ovarian
HOP-62 NSCLC = tested on: HOP-62 NSCLC
SNB-78 CNS = tested on: SNB-78 CNS
OVCAR-8 ovarian = tested on: OVCAR-8 ovarian
XF 498 CNS = tested on: XF 498 CNS
UACC-62 melanoma = tested on: UACC-62 melanoma
SK-OV-3 ovarian = tested on: SK-OV-3 ovarian
HCC-2998 colon = tested on: HCC-2998 colon
SW-620 colon = tested on: SW-620 colon
CCRF-CEM leukemia = tested on: CCRF-CEM leukemia
M19-MEL melanoma = tested on: M19-MEL melanoma
SNB-75 CNS = tested on: SNB-75 CNS
RPMI-8226 leukemia = tested on: RPMI-8226 leukemia
HT29 colon = tested on: HT29 colon
KM12 colon = tested on: KM12 colon
DLD-1 colon = tested on: DLD-1 colon
K-562 leukemia = tested on: K-562 leukemia
HCT-116 colon = tested on: HCT-116 colon
IGROV1 ovarian = tested on: IGROV1 ovarian
SF-268 CNS = tested on: SF-268 CNS
UACC-257 melanoma = tested on: UACC-257 melanoma
SF-539 CNS = tested on: SF-539 CNS
SK-MEL-28 melanoma = tested on: SK-MEL-28 melanoma
HL-60(TB) leukemia = tested on: HL-60(TB) leukemia
HCT-15 colon = tested on: HCT-15 colon
SF-295 CNS = tested on: SF-295 CNS
HOP-18 NSCLC = tested on: HOP-18 NSCLC
SK-MEL-5 melanoma = tested on: SK-MEL-5 melanoma
OVCAR-4 ovarian = tested on: OVCAR-4 ovarian
KM20L2 colon = tested on: KM20L2 colon
A549 NSCLC = tested on: A549 NSCLC
DMS 114 small cell lung = tested on: DMS 114 small cell lung
SNB-19 CNS = tested on: SNB-19 CNS
UO-31 renal = tested on: UO-31 renal
NCI-H522 lung = tested on: NCI-H522 lung
LOX IMVI melanoma = tested on: LOX IMVI melanoma
COLO 205 colon = tested on: COLO 205 colon
NCI/ADR-RES ovarian = tested on: NCI/ADR-RES ovarian

SMILES: O=C1CNC(=O)N1
- TGI (A498 renal): > 1120 µM
- TGI (U251 CNS): > 1120 µM
- TGI (SN12C renal): > 1120 µM
- TGI (MOLT-4 leukemia): > 1120 µM
- TGI (EKVX NSCLC): > 1120 µM
- TGI (HOP-92 NSCLC): > 11.2 µM
- TGI (NCI-H226 lung): > 1120 µM
- TGI (NCI-H23 lung): > 1120 µM
- TGI (MALME-3M melanoma): > 1120 µM
- TGI (OVCAR-5 ovarian): > 1120 µM
- TGI (NCI-H460 lung): > 1120 µM
- TGI (SN12K1 renal): > 1120 µM
- TGI (P388 leukemia): > 520 µM
- TGI (RXF 393 renal): > 1120 µM
- TGI (SK-MEL-2 melanoma): > 1120 µM
- TGI (DMS 273 small cell lung): > 1120 µM
- TGI (CAKI-1 renal): > 1120 µM
- TGI (P388/ADR leukemia): > 630 µM
- TGI (MCF7 breast): > 1120 µM
- TGI (OVCAR-3 ovarian): > 1120 µM
- TGI (HOP-62 NSCLC): > 1120 µM
- TGI (SNB-78 CNS): > 1120 µM
- TGI (OVCAR-8 ovarian): > 1120 µM
- TGI (XF 498 CNS): > 11.2 µM
- TGI (UACC-62 melanoma): > 1120 µM
- TGI (SK-OV-3 ovarian): > 1120 µM
- TGI (HCC-2998 colon): > 1120 µM
- TGI (SW-620 colon): > 1120 µM
- TGI (CCRF-CEM leukemia): > 954 µM
- TGI (M19-MEL melanoma): > 1120 µM
- TGI (SNB-75 CNS): > 1120 µM
- TGI (RPMI-8226 leukemia): > 1120 µM
- TGI (HT29 colon): > 1120 µM
- TGI (KM12 colon): > 1120 µM
- TGI (DLD-1 colon): > 1120 µM
- TGI (K-562 leukemia): > 630 µM
- TGI (HCT-116 colon): > 1120 µM
- TGI (IGROV1 ovarian): > 1120 µM
- TGI (SF-268 CNS): > 1120 µM
- TGI (UACC-257 melanoma): > 1120 µM
- TGI (SF-539 CNS): > 1120 µM
- TGI (SK-MEL-28 melanoma): > 1120 µM
- TGI (HL-60(TB) leukemia): > 1120 µM
- TGI (HCT-15 colon): > 1120 µM
- TGI (SF-295 CNS): > 1120 µM
- TGI (HOP-18 NSCLC): > 1120 µM
- TGI (SK-MEL-5 melanoma): > 1120 µM
- TGI (OVCAR-4 ovarian): > 1120 µM
- TGI (KM20L2 colon): > 1120 µM
- TGI (A549 NSCLC): > 1120 µM
- TGI (DMS 114 small cell lung): > 1120 µM
- TGI (SNB-19 CNS): > 1120 µM
- TGI (UO-31 renal): > 1120 µM
- TGI (NCI-H522 lung): > 1120 µM
- TGI (LOX IMVI melanoma): > 1120 µM
- TGI (COLO 205 colon): > 1120 µM
- TGI (NCI/ADR-RES ovarian): > 1120 µM

SMILES: O=C(NC/C=C/CO)c1ccccc1
- TGI (A498 renal): > 100 µM
- TGI (U251 CNS): > 100 µM
- TGI (SN12C renal): > 100 µM
- TGI (MOLT-4 leukemia): > 100 µM
- TGI (EKVX NSCLC): > 100 µM
- TGI (NCI-H226 lung): > 100 µM
- TGI (NCI-H23 lung): > 100 µM
- TGI (MALME-3M melanoma): > 100 µM
- TGI (OVCAR-5 ovarian): > 100 µM
- TGI (NCI-H460 lung): > 100 µM
- TGI (SN12K1 renal): > 100 µM
- TGI (P388 leukemia): > 100 µM
- TGI (RXF 393 renal): > 100 µM
- TGI (SK-MEL-2 melanoma): > 100 µM
- TGI (DMS 273 small cell lung): > 100 µM
- TGI (P388/ADR leukemia): > 100 µM
- TGI (MCF7 breast): > 100 µM
- TGI (OVCAR-3 ovarian): > 100 µM
- TGI (HOP-62 NSCLC): > 100 µM
- TGI (SNB-78 CNS): > 100 µM
- TGI (OVCAR-8 ovarian): > 100 µM
- TGI (XF 498 CNS): > 100 µM
- TGI (UACC-62 melanoma): > 100 µM
- TGI (SK-OV-3 ovarian): > 100 µM
- TGI (HCC-2998 colon): > 100 µM
- TGI (SW-620 colon): > 100 µM
- TGI (CCRF-CEM leukemia): > 100 µM
- TGI (M19-MEL melanoma): > 100 µM
- TGI (SNB-75 CNS): > 100 µM
- TGI (RPMI-8226 leukemia): > 100 µM
- TGI (HT29 colon): > 100 µM
- TGI (KM12 colon): > 100 µM
- TGI (DLD-1 colon): > 100 µM
- TGI (K-562 leukemia): > 100 µM
- TGI (HCT-116 colon): > 100 µM
- TGI (IGROV1 ovarian): > 100 µM
- TGI (SF-268 CNS): > 100 µM
- TGI (UACC-257 melanoma): > 100 µM
- TGI (SF-539 CNS): > 100 µM
- TGI (SK-MEL-28 melanoma): > 100 µM
- TGI (HL-60(TB) leukemia): > 100 µM
- TGI (HCT-15 colon): > 100 µM
- TGI (SF-295 CNS): > 100 µM
- TGI (HOP-18 NSCLC): > 100 µM
- TGI (SK-MEL-5 melanoma): > 100 µM
- TGI (OVCAR-4 ovarian): > 100 µM
- TGI (KM20L2 colon): > 100 µM
- TGI (A549 NSCLC): > 100 µM
- TGI (DMS 114 small cell lung): > 100 µM
- TGI (SNB-19 CNS): > 100 µM
- TGI (UO-31 renal): > 100 µM
- TGI (NCI-H522 lung): > 100 µM
- TGI (LOX IMVI melanoma): > 100 µM
- TGI (COLO 205 colon): > 100 µM
- TGI (NCI/ADR-RES ovarian): > 100 µM
